Data reported in US7192951B2, “Treatment of congestive heart failure” (Astellas Pharma Inc., priority 2000, dated 2007).
Where a name gives a salt, the structure may show the parent alone.

Columns and labels:
human lymphocytes = test: Clastogenicity in human lymphocytes in vitro; assay type: cell-based
dogs = settings: dog, in vivo, 2 mg/kg
bacteria = test: Mutagenicity in bacteria; assay type: cell-based
[1] = test system: aquaretic action (V2-receptor antagonism); test: Aquaretic action in normal subjects (Phase 1); assay type: in vivo, human
human subjects = test: Safety in Phase 1 subjects; assay type: in vivo
Text: Other adverse events included flushes, a sensation of cold extremities, abdominal complaints, abnormal stools, syncope, dizziness, palpitations, and postural hypotension. […] These observations were considered related to antagonism of V2 receptors and not a safety concern. Vital signs (blood pressure and heart rate) were unaffected by YM087.

[2] = Oral pharmacokinetics in rats; assay type: in vivo; settings: rat
Text: (§1) There is a marked food effect with absorption reduced by >50% in dogs after a meal.

[3] = Oral pharmacokinetics in dogs; assay type: in vivo; settings: dog
Text: as §1

[4] = test system: urinary output (V2 antagonism); test: Urinary output and osmolality in conscious dogs, oral; assay type: in vivo, dog
bone marrow = test: 2- and 13-week oral toxicity studies in dogs; assay type: in vivo, dog
[5] = test system: AVP-induced pressor response (V1A antagonism); test: Antagonism of AVP-induced pressor response in dogs, intravenous; assay type: in vivo, dog
[6] = test system: AVP-induced pressor response (V1A antagonism); test: Antagonism of AVP-induced pressor response in rats, oral; assay type: in vivo, rat
[7] = Human pharmacokinetics (Phase 1)
[8] = test system: AVP-induced dermal vasoconstriction; test: AVP-induced dermal vasoconstriction in Phase 1 subjects; assay type: in vivo, human; settings: 50 mg IV
rabbits = test: Teratogenicity in rabbits; assay type: in vivo, rabbit
[9] = test system: AVP-induced platelet aggregation (V1A antagonist activity); test: AVP-induced platelet aggregation in Phase 1 subjects; assay type: in vivo, human; settings: 20 mg/day orally or 2.5 mg IV
[10] = test system: female rats (estrous cycle, uterine weights); settings: 13-week repeated oral dose, all doses
bone marrow of rats = test: Clastogenicity in bone marrow of rats; assay type: in vivo, rat
rats [11] = test: Teratogenicity in rats; assay type: in vivo, rat
rats (fertility) = test: Reproductive performance and female fertility study in rats; assay type: in vivo, rat
[12] = test system: heart failure induced by rapid right ventricular pacing; test: Dogs with heart failure induced by rapid right ventricular pacing; assay type: in vivo, dog; settings: intravenous 0.1 mg/kg
rats [13] = settings: rat, in vivo, 2.5 mg/kg

Compound: Cc1nc2c([nH]1)-c1ccccc1N(C(=O)c1ccc(NC(=O)c3ccccc3-c3ccccc3)cc1)CC2 [YM087, N-[4-(2-methyl-4,5,6-tetrahydromidazo[4,5-d][1]benzazepin-6-ylcarbonyl)phenyl]biphenyl-2-carboxamide hydrochloride]
- clastogenicity (human lymphocytes): not clastogenic
- toxicity in 4-week IV study (dogs): No toxicity was observed
- mutagenicity (bacteria): not mutagenic
- duration of increased urine production rate postdosing ([1]; IV 50 mg/day): ≤ 6 h
- duration of increased urine production rate postdosing ([1]; IV doses up to 250 μg/kg): up to 3 hours
- tolerability of aquaretic effects ([1]; normal subjects, 120 mg QD or 60 mg BID orally or 50 mg IV): considered too uncomfortable in normal subjects to be tolerable
- dose at which aquaretic action with decrease in urine osmolarity starts ([1]; normal subjects, IV): 0.05 mg/kg
- dose at which aquaretic action with decrease in urine osmolarity starts ([1]; normal subjects, oral): 15 mg
- biochemical or hematological laboratory parameters (human subjects; Phase 1 subjects): No drug-related trend was observed
- vital signs (blood pressure and heart rate) (human subjects; Phase 1 subjects): unaffected
- overall safety (human subjects; approximately 250 subjects treated): no major safety concerns were identified
- urinary and plasma osmolarity (human subjects; at higher doses, considered related to V2 antagonism): urinary osmolarity decreased and plasma osmolarity increased with or without an increase in plasma sodium
- serious adverse event (human subjects; one patient with severe CHF, 80 mg/day for 4 days, relation to study drug could not be excluded): generalized tonic clonic seizure
- most frequent adverse events (human subjects; regardless of treatment association): mild or moderate thirst and mild headache
- white blood cell counts (human subjects; three subjects who received YM087 (one on placebo)): minor, reversible decreases in white blood cell counts
- time to peak concentrations [2]: 0.5 h
- time to peak concentrations [3]: 1 h
- urinary output ([4]; conscious dogs, oral 0.03 to 0.3 mg/kg, dose-related): increased urinary output
- urinary osmolality ([4]; conscious dogs, oral 0.03 to 0.3 mg/kg, reduced from 1500, dose-related): < 100 mOsm/kg H2O
- effect on urinary sodium (Na) or potassium (K) excretion ([4]; unlike furosemide, species not given): little or no effect
- peripheral blood counts (bone marrow; affected dogs, 13-week oral study): Decreased peripheral erythrocyte, leukocyte, and/or platelet counts
- reversibility of bone marrow and peripheral blood changes (bone marrow; dogs): reversible
- ID50 (dose that reduced the AVP response by 50%) [5]: 0.026 mg/kg
- ID50 (dose that reduced the AVP response by 50%) [6]: 0.32 mg/kg
- plasma levels after repeated BID oral doses ([7]; 60 mg BID oral, after the second dose): unexpectedly high plasma levels after the second dose
- half-life ([7]; plasma): 4 to 5 h
- bioavailability ([7]; plasma, oral): 43 to 59%
- Tmax ([7]; plasma, po): ~1 h
- bioavailability ([7]; plasma, po, 60 mg): 44%
- AVP-induced dermal vasoconstriction [8]: Total inhibition
- teratogenicity (rabbits): not teratogenic
- AVP-induced platelet aggregation [9]: Inhibition of AVP-induced platelet aggregation
- uterine weights [10]: decreased at all doses
- clastogenicity (bone marrow of rats): not clastogenic
- teratogenicity (rats [11]): not teratogenic
- female fertility (rats (fertility); female rats, 100 mg/kg orally for 2 weeks prior to mating with untreated males): reduced fertility index, increased implantation loss, and decreased live fetuses
- reproductive performance of male rats (rats (fertility); male rats): did not affect
- cardiac function [12]: significantly improved the depressed cardiac function
- diuresis [12]: produced a water diuresis
- toxicity in 4-week IV study (rats [13]): No toxicity was observed
